Assay results reported in patent publication US12084445B2, “Broad-spectrum carbapenems” (VenatoRx Pharmaceuticals, Inc., priority 2018, dated 2024).
Like-named read-outs stand apart in the source and are kept apart here.

How the values were obtained:
Format in all cases: cell-based
[1] = system: S. aureus ATCC 29213 (methicillin sensitive); test: broth microdilution MIC assay, S. aureus ATCC 29213; details: Staphylococcus aureus, ATCC 29213 / MSSA
Procedure: (§1) To determine the ability of test compounds to potentiate the inhibition of the growth of bacterial strains, classic cell-based broth microdilution MIC assays were employed. MIC assays are performed according to CLSI methods except where otherwise noted (CLSI, 2011 and CLSI, 2009). The reference strains S. aureus ATCC 29213 (methicillin sensitive), S. aureus ATCC 33591 (methicillin-resistant), E. coli ATCC 25922 (wild-type/QC strain), P. aeruginosa ATCC 27853 (wild-type/QC strain), and the clinical isolate P. aeruginosa PA 8 were used to determine the ability of the exemplary carbapenem compounds to inhibit bacterial growth. An expanded panel of methicillin resistance S. aureus (MRSA) and Pseudomonas was also used to determine the ability of exemplary carbapenem compounds to inhibit bacterial growth across a broader representation of those species. To determine activity in MRSA and in addition to S. aureus ATCC 33591, S. aureus USA 300, USA 400 and USA 600, some of the most common clones found to cause human infection, were also used. To further gauge the impact on the carbapenem compounds due to various resistance mechanisms in Pseudomonas, the following strains were included: P. aeruginosa 35151 (hyper-permeable strain), P. aeruginosa AmexAB-OprM (an efflux pump knockout), and P. aeruginosa PA 3 (a clinical isolate of reduced carbapenem susceptibility). Briefly, cryo-preserved bacterial cultures of clinical strains are streaked for isolation on appropriate agar medium, in this case Mueller Hinton II agar. Following incubation to allow formation of colonies, these plates are sealed with parafilm and stored refrigerated for up to two weeks. For preparation of assay inocula and to ensure low variability, at least 5 colonies are picked from the agar plates with an inoculating loop and aseptically transferred to a culture tube containing 3 mL of Mueller-Hinton Broth (supplemented with divalent cations to required levels based on Manufacturers' specification). The broth culture is grown for 3-5 hours at 37° C. with shaking at 200 rpm. Meanwhile, 2-fold serial dilutions of test compounds are conducted in a 96 well plate with a final volume of 75 μL per well at 2-fold the final desired concentration. After the dilution plates are set up the growing cultures are then diluted in a cuvette containing MH II broth and the optical density is measured at 600 nm. Inocula are diluted such that 75 μL of this culture in Mueller-Hinton Broth results in a starting bacterial concentration of 5×10^5 CFU/mL when added to the dilution plates. The plates are incubated 16-20 hours at 37° C. The MIC is read visually as the lowest concentration well with no bacterial growth.
(§2) Representative results are shown in Tables 3, 4, and 5 where A represents an MIC>32 μg/mL, B represents an MIC between 8 and 32 μg/mL inclusive, C represents an MIC between 1 and 4 μg/mL inclusive, and D represents an MIC of <1 μg/mL. NT=Not Tested.

[2] = system: E. coli ATCC 25922 (wild-type/QC strain); test: broth microdilution MIC assay, E. coli ATCC 25922; details: Escherichia coli
Summary of the method: (§3)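 Following CLSI guidance, bacteria were exposed to twofold compound dilution series at a starting density of 5×10^5 CFU/mL in cation-adjusted Mueller-Hinton broth. After overnight incubation (16-20 h, 37 °C), the lowest well lacking growth was taken as the MIC.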

[3] = system: S. aureus ATCC 33591 (methicillin-resistant); test: broth microdilution MIC assay, S. aureus ATCC 33591; details: Staphylococcus aureus, ATCC 33591 / MRSA
Summary of the method: as §3

[4] = system: P. aeruginosa ATCC 27853 (wild-type/QC strain); test: broth microdilution MIC assay, P. aeruginosa ATCC 27853; details: Pseudomonas aeruginosa
Summary of the method: as §3

[5] = system: clinical isolate P. aeruginosa PA 8; test: broth microdilution MIC assay, P. aeruginosa PA 8; details: Pseudomonas aeruginosa; Table 3; P. aeruginosa PA8
Procedure: as §1, §2

[6] = Table 3, S. aureus 29213 (MSSA), read-out: S. aureus 29213 (MSSA) MIC
[7] = ATCC25922, Table 3, E. coli 25922, read-out: E. coli 25922 MIC
[8] = Table 3, S. aureus 33591 (MRSA), read-out: S. aureus 33591 (MRSA) MIC
[9] = ATCC27853, Table 3, P. aeruginosa 27853, read-out: P. aeruginosa 27853 MIC

Compound | MIC [1, 6] | MIC [2, 7] | MIC [3, 8] | MIC [4, 9] | MIC [5] | MIC ([1]; read-out: S. aureus 29213 (MSSA) MIC (μg/mL)) | MIC ([2]; ATCC25922, read-out: E. coli 25922 MIC (μg/mL)) | MIC ([3]; read-out: S. aureus 33591 (MRSA) MIC (μg/mL)) | MIC ([4]; ATCC27853, read-out: P. aeruginosa 27853 MIC (μg/mL))
C[C@@H](O)[C@H]1C(=O)N2C(C(=O)O)=C(S[C@H]3CCN(C4CCNCC4)C3)[C@H](C)[C@H]12 [Example 2, (4R,5S,6S)-6-((R)-1-hydroxyethyl)-4-methyl-7-oxo-3-(((S)-1-(piperidin-4-yl)pyrrolidin-3-yl)thio)-1-azabicyclo[3.2.0]hept-2-ene-2-carboxylic acid] | < 1 µg/mL | < 1 µg/mL | 8 to 32 µg/mL | 1 to 4 µg/mL | > 32 µg/mL |  |  |  | 
C[C@@H](O)[C@H]1C(=O)N2C(C(=O)O)=C(S[C@@H]3CCN(C4CCCNC4)C3)[C@H](C)[C@H]12 (stereo partly drawn) [Example 4, (4R,5S,6S)-6-((R)-1-hydroxyethyl)-4-methyl-7-oxo-3-(((3R)-1-(piperidin-3-yl)pyrrolidin-3-yl)thio)-1-azabicyclo[3.2.0]hept-2-ene-2-carboxylic acid] | < 1 µg/mL | < 1 µg/mL | 8 to 32 µg/mL | 1 to 4 µg/mL | 8 to 32 µg/mL |  |  |  | 
C[C@@H](O)[C@H]1C(=O)N2C(C(=O)O)=C(S[C@@H]3CCN(C4CCNC4)C3)[C@H](C)[C@H]12 (stereo partly drawn) [Example 6, (4R,5S,6S)-3-(((3R)-[1,3′-bipyrrolidin]-3-yl)thio)-6-((R)-1-hydroxyethyl)-4-methyl-7-oxo-1-azabicyclo[3.2.0]hept-2-ene-2-carboxylic acid] | < 1 µg/mL | < 1 µg/mL | 8 to 32 µg/mL | 1 to 4 µg/mL | 1 to 4 µg/mL |  |  |  | 
C[C@@H](O)[C@H]1C(=O)N2C(C(=O)O)=C(S[C@@H]3CCN(CC4CCNCC4)C3)[C@H](C)[C@H]12 [Example 7, (4R,5S,6S)-6-((R)-1-hydroxyethyl)-4-methyl-7-oxo-3-(((R)-1-(piperidin-4-ylmethyl)pyrrolidin-3-yl)thio)-1-azabicyclo[3.2.0]hept-2-ene-2-carboxylic acid] | < 1 µg/mL | < 1 µg/mL | 1 to 4 µg/mL | 1 to 4 µg/mL | 1 to 4 µg/mL |  |  |  | 
C[C@@H](O)[C@H]1C(=O)N2C(C(=O)O)=C(S[C@@H]3CCN(C[C@H]4CCCN4)C3)[C@H](C)[C@H]12 [Example 8, (4R,5S,6S)-6-((R)-1-hydroxyethyl)-4-methyl-7-oxo-3-(((R)-1-(((R)-pyrrolidin-2-yl)methyl)pyrrolidin-3-yl)thio)-1-azabicyclo[3.2.0]hept-2-ene-2-carboxylic acid] | < 1 µg/mL | < 1 µg/mL | 1 to 4 µg/mL | 8 to 32 µg/mL | 8 to 32 µg/mL |  |  |  | 
C[C@@H](O)[C@H]1C(=O)N2C(C(=O)O)=C(S[C@@H]3CCN(Cc4ccncc4)C3)[C@H](C)[C@H]12 [Example 9, (4R,5S,6S)-6-((R)-1-hydroxyethyl)-4-methyl-7-oxo-3-(((R)-1-(pyridin-4-ylmethyl)pyrrolidin-3-yl)thio)-1-azabicyclo[3.2.0]hept-2-ene-2-carboxylic acid] | < 1 µg/mL | < 1 µg/mL | 8 to 32 µg/mL | 8 to 32 µg/mL | 8 to 32 µg/mL |  |  |  | 
C[C@@H](O)[C@H]1C(=O)N2C(C(=O)O)=C(S[C@@H]3CCN(CCC4CCNCC4)C3)[C@H](C)[C@H]12 [Example 11, (4R,5S,6S)-6-((R)-1-hydroxyethyl)-4-methyl-7-oxo-3-(((R)-1-(2-(piperidin-4-yl)ethyl)pyrrolidin-3-yl)thio)-1-azabicyclo[3.2.0]hept-2-ene-2-carboxylic acid] | < 1 µg/mL | < 1 µg/mL | 1 to 4 µg/mL | 1 to 4 µg/mL | 1 to 4 µg/mL |  |  |  | 
C[C@@H](O)[C@H]1C(=O)N2C(C(=O)O)=C(S[C@@H]3CCN(CC4(F)CCNCC4)C3)[C@H](C)[C@H]12 [Example 16, (4R,5S,6S)-3-(((R)-1-((4-fluoropiperidin-4-yl)methyl)pyrrolidin-3-yl)thio)-6-((R)-1-hydroxyethyl)-4-methyl-7-oxo-1-azabicyclo[3.2.0]hept-2-ene-2-carboxylic acid] |  |  |  |  |  | < 1 µg/mL | < 1 µg/mL | 8 to 32 µg/mL | 8 to 32 µg/mL
